Target: T1, mouse TRPM3α2 (mTRPM3) ion channel (Mus musculus, UniProt J9SQF3)
T1 construct: expressed in transfected cells; host or cells: flip-in HEK293 (Flp-In HEK293) overexpressing mTRPM3alpha2
Experiment: TRPM3 ion channel driven Ca2+ uptake, Fluo-4 AM assay, stimulated with pregnenolone sulfate (50 μM)
Format: cell-based
Conditions: TRPM3 overexpressing flip-in HEK293 cells, PS 50 μM, 2.4 mM Ca2+
Method: In order to monitor the inhibition of the mouse TRPM3α2 (mTRPM3) ion channel by the compounds of the invention, a cellular system making use of an mTRPM3alpha2 or hTRPM3 overexpressing cell line (flip-in HEK293) was used. The TRPM3 channel was stimulated/opened with Pregnenolone sulfate (PS) (50 μM) which results in Ca^2+ influx.
For mTRPM3, the intracellular Ca^2+ was measured with a Calcium responsive dye, Fluor-4 AM ester (Invitrogen). Cells were cultured until a confluence of 80-90%, washed with Versene (Invitrogen) and detached from the surface by a short incubation with 0.05% Trypsin (Invitrogen). The […] was stopped by the addition of complete cell culture medium (DMEM, glutamax, 10% FCS, NEAA, Pen-Strep). Cells were collected and resuspended in Krebs buffer without Calcium at RT.
Prior the cell seeding (±2000 cells/well into a black, 384 well plate (Greiner)) the diluted compound was added in the assay plate, together with the PS dissolved in Krebs buffer containing Calcium. […] Directly after cell addition the plates were read on an Envision fluorescence reader (Perkin Elmer) by an Excitation of 485 nm and emission at 535 nm.
Channel inhibition was calculated compared to a non-PS stimulated control versus a condition stimulated with PS (50 μM) with vehicle. The ability of the compounds of the invention to inhibit this activity was determined as: Percentage inhibition=[1−((RFU determined for sample with test compound present−RFU determined for sample with positive control inhibitor) divided by (RFU determined in the presence of vehicle−RFU determined for sample with positive control inhibitor))]*100.
The activities of the Example compounds cpd 001-091 tested are depicted in the table below. All tested compounds show an activity in the Fluo-4 AM assay. The activity ranges A, B and C refer to IC50 values in the Fluo-4 AM assay as follows: “A”: IC50<1 μM; “B”: 1 μM≤IC50≤20 μM and “C”: IC50>20 μM.

T1 sequence (J9SQF3 1-1709 isoform J9SQF3-12): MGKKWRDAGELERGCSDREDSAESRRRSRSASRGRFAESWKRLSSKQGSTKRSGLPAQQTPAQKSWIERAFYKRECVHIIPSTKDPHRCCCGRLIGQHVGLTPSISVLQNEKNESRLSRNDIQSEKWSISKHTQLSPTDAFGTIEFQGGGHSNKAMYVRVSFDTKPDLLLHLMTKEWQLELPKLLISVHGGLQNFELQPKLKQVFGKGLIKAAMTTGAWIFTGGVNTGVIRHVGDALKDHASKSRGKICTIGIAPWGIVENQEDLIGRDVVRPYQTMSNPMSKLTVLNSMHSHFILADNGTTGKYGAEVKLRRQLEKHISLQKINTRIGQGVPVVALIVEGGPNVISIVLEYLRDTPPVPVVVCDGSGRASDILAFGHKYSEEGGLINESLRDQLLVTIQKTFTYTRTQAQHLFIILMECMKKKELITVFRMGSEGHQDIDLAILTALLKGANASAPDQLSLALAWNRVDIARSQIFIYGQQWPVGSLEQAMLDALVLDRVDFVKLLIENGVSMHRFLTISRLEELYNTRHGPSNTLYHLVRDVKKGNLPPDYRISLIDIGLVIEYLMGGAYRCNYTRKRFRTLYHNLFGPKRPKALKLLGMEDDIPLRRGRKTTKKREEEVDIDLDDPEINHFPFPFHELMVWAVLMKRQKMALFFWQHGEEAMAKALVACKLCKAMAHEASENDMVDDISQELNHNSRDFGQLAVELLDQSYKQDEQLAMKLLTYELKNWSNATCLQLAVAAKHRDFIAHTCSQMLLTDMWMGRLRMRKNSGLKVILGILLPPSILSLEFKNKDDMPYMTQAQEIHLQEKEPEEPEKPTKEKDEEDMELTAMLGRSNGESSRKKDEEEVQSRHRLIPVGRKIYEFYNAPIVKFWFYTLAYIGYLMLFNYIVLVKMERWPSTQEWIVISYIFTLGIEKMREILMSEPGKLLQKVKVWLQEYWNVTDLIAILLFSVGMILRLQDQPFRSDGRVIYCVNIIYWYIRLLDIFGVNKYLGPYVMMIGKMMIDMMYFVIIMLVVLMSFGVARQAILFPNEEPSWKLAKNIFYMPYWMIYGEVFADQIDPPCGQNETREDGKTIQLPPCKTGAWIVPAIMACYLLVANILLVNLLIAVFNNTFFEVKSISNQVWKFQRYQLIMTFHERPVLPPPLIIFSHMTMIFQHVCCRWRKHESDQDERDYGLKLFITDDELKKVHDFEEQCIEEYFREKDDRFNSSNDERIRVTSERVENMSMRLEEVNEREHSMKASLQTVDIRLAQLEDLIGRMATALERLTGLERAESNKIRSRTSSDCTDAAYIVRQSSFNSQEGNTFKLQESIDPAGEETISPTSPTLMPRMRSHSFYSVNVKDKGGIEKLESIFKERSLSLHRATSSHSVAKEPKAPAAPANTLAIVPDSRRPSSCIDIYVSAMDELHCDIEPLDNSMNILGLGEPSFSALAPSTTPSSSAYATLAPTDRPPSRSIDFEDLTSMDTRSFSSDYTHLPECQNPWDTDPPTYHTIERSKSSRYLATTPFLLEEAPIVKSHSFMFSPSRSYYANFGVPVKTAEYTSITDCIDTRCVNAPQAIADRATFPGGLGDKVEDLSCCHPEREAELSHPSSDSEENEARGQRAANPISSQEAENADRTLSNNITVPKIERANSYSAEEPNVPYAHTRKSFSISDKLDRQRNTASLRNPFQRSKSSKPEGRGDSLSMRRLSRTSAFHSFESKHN

Row | Compound | IC50
1 | Cc1nn2ccc(OCc3ccccc3F)cc2c1C(=O)N[C@@H](CO)C(N)=O [Cpd 003, (2S)-2-({5-[(2-fluorophenyl)methoxy]-2-methylpyrazolo[1,5-a]pyridin-3-yl}formamido)-3-hydroxypropanamide] | < 1 µM
2 | Cc1nn2ccc(OCc3ccccc3F)cc2c1C(=O)NC(C)(C)C(N)=O [Cpd 004, 2-({5-[(2-fluorophenyl)methoxy]-2-methylpyrazolo[1,5-a]pyridin-3-yl}formamido)-2-methylpropanamide] | 1 to 20 µM
3 | Cc1nn2ccc(OCc3ccccc3F)cc2c1C(=O)NCC(F)F [Cpd 006, N-(2,2-difluoroethyl)-5-[(2-fluorophenyl)methoxy]-2-methylpyrazolo[1,5-a]pyridine-3-carboxamide] | 1 to 20 µM
4 | Cc1nn2ccc(OCc3ccccc3F)cc2c1C(=O)N[C@H](C(N)=O)[C@@H](C)O [Cpd 007, (2S,3R)-2-({5-[(2-fluorophenyl)methoxy]-2-methylpyrazolo[1,5-a]pyridin-3-yl}formamido)-3-hydroxybutanamide] | < 1 µM
5 | Cc1ncsc1COc1ccn2nc(C)c(C(=O)NC(C)(CO)CO)c2c1 [Cpd 008, N-(1,3-dihydroxy-2-methylpropan-2-yl)-2-methyl-5-[(4-methyl-1,3-thiazol-5-yl)methoxy]pyrazolo[1,5-a]pyridine-3-carboxamide] | 1 to 20 µM
6 | Cc1ncsc1COc1ccn2nc(C)c(C(=O)N[C@@H](CO)C(N)=O)c2c1 [Cpd 010, (2S)-3-hydroxy-2-({2-methyl-5-[(4-methyl-1,3-thiazol-5-yl)methoxy]pyrazolo[1,5-a]pyridin-3-yl}formamido)propanamide] | 1 to 20 µM
7 | Cc1nn2ccc(OCc3ccccc3Cl)cc2c1C(=O)N[C@@H](CO)C(N)=O [Cpd 012, (2S)-2-({5-[(2-chlorophenyl)methoxy]-2-methylpyrazolo[1,5-a]pyridin-3-yl}formamido)-3-hydroxypropanamide] | < 1 µM
8 | Cc1nn2ccc(OCc3ccccc3Cl)cc2c1C(=O)NC(C)(C)C(N)=O [Cpd 013, 2-({5-[(2-chlorophenyl)methoxy]-2-methylpyrazolo[1,5-a]pyridin-3-yl}formamido)-2-methylpropanamide] | 1 to 20 µM
9 | Cc1nn2ccc(OCc3ccccc3Cl)cc2c1C(=O)NC(C)(CO)CO [Cpd 014, 5-[(2-chlorophenyl)methoxy]-N-(1,3-dihydroxy-2-methylpropan-2-yl)-2-methylpyrazolo[1,5-a]pyridine-3-carboxamide] | < 1 µM
10 | Cc1nn2ccc(OCc3ccccc3)cc2c1C(=O)O [Cpd 033, 5-(benzyloxy)-2-methylpyrazolo[1,5-a]pyridine-3-carboxylic acid] | > 20 µM
11 | Cc1nn2ccc(OCC3CC3)cc2c1C(=O)O [Cpd 034, 5-(cyclopropylmethoxy)-2-methylpyrazolo[1,5-a]pyridine-3-carboxylic acid] | > 20 µM
12 | Cc1nn2ccc(OCc3ccccn3)cc2c1C(=O)NCC(F)(F)F [Cpd 042, 2-methyl-5-[(pyridin-2-yl)methoxy]-N-(2,2,2-trifluoroethyl)pyrazolo[1,5-a]pyridine-3-carboxamide] | > 20 µM
13 | Cc1nn2ccc(OCc3ccccn3)cc2c1C(=O)NCC(F)(F)c1ccccc1 [Cpd 046, N-(2,2-difluoro-2-phenylethyl)-2-methyl-5-[(pyridin-2-yl)methoxy]pyrazolo[1,5-a]pyridine-3-carboxamide] | > 20 µM
14 | Cc1nn2ccc(OCc3ccccn3)cc2c1C(=O)NCc1c(F)cccc1C(F)(F)F [Cpd 047, N-{[2-fluoro-6-(trifluoromethyl)phenyl]methyl}-2-methyl-5-[(pyridin-2-yl)methoxy]pyrazolo[1,5-a]pyridine-3-carboxamide] | 1 to 20 µM
15 | Cc1nn2ccc(OCc3ccccn3)cc2c1C(=O)NCc1cccc(OC(F)F)c1 [Cpd 048, N-{[3-(difluoromethoxy)phenyl]methyl}-2-methyl-5-[(pyridin-2-yl)methoxy]pyrazolo[1,5-a]pyridine-3-carboxamide] | > 20 µM
16 | Cc1nn2ccc(OCc3ccccn3)cc2c1C(=O)Nc1cc(C(F)(F)F)cnc1O [Cpd 056, N-[2-hydroxy-5-(trifluoromethyl)pyridin-3-yl]-2-methyl-5-[(pyridin-2-yl)methoxy]pyrazolo[1,5-a]pyridine-3-carboxamide] | > 20 µM
17 | Cc1nn2ccc(OCc3ccccn3)cc2c1C(=O)NC1(CO)COC(C)(C)OC1 [Cpd 057, N-[5-(hydroxymethyl)-2,2-dimethyl-1,3-dioxan-5-yl]-2-methyl-5-[(pyridin-2-yl)methoxy]pyrazolo[1,5-a]pyridine-3-carboxamide] | > 20 µM
18 | Cc1nn2ccc(OCc3ccccn3)cc2c1C(=O)NC(CO)CC(N)=O (centres unmarked) [Cpd 076 - En2] | > 20 µM

Other lines, results leading:

Row | IC50 | Compound
19 | 1 to 20 µM | Cc1nn2ccc(OCc3ccccc3F)cc2c1C(=O)NCCNS(C)(=O)=O [Cpd 005, 5-[(2-fluorophenyl)methoxy]-N-(2-methanesulfonamidoethyl)-2-methylpyrazolo[1,5-a]pyridine-3-carboxamide]
20 | > 20 µM | Cc1nn2ccc(OCc3ccccc3F)cc2c1C(=O)O [Cpd 035, 5-[(2-fluorophenyl)methoxy]-2-methylpyrazolo[1,5-a]pyridine-3-carboxylic acid]
21 | > 20 µM | Cc1nn2ccc(OCc3ccccc3Cl)cc2c1C(=O)O [Cpd 036, 5-[(2-chlorophenyl)methoxy]-2-methylpyrazolo[1,5-a]pyridine-3-carboxylic acid]
22 | > 20 µM | Cc1nn2ccc(OCc3ccccn3)cc2c1C(=O)NCCO [Cpd 043, N-(2-hydroxyethyl)-2-methyl-5-[(pyridin-2-yl)methoxy]pyrazolo[1,5-a]pyridine-3-carboxamide]
23 | 1 to 20 µM | Cc1nn2ccc(OCc3ccccn3)cc2c1C(=O)NCc1ncc[nH]1 [Cpd 044, N-[(1H-imidazol-2-yl)methyl]-2-methyl-5-[(pyridin-2-yl)methoxy]pyrazolo[1,5-a]pyridine-3-carboxamide]
24 | 1 to 20 µM | Cc1nn2ccc(OCc3ccccn3)cc2c1C(=O)NCC(C)(C)CN(C)C [Cpd 045, N-[3-(dimethylamino)-2,2-dimethylpropyl]-2-methyl-5-[(pyridin-2-yl)methoxy]pyrazolo[1,5-a]pyridine-3-carboxamide]
25 | 1 to 20 µM | Cc1nn2ccc(OCc3ccccn3)cc2c1C(=O)NC1(CO)CC(F)(F)C1 [Cpd 055, N-[3,3-difluoro-1-(hydroxymethyl)cyclobutyl]-2-methyl-5-[(pyridin-2-yl)methoxy]pyrazolo[1,5-a]pyridine-3-carboxamide]
26 | > 20 µM | Cc1nn2ccc(OCc3ccccn3)cc2c1C(=O)NC1(CO)CC1(F)F (centres unmarked) [Cpd 071, N-[2,2-difluoro-1-(hydroxymethyl)cyclopropyl]-2-methyl-5-[(pyridin-2-yl)methoxy]pyrazolo[1,5-a]pyridine-3-carboxamide]
27 | > 20 µM | Cc1nn2ccc(OCc3ccccn3)cc2c1C(=O)N[C@H](CO)CC(N)=O [Cpd 076 - En1, (S)-4-hydroxy-3-({2-methyl-5-[(pyridin-2-yl)methoxy]pyrazolo[1,5-a]pyridin-3-yl}formamido)butanamide]
28 | > 20 µM | Cc1nn2ccc(OCc3ccccn3)cc2c1C(=O)NC(CO)C1CCOCC1 (centres unmarked) [Cpd 077 - En2]
29 | > 20 µM | Cc1nn2ccc(OCc3ccccn3)cc2c1C(=O)NC(CO)Cc1ncccn1 (centres unmarked) [Cpd 079 - En 1]
